In patent EP4678638A1, “NEW E3 UBIQUITIN LIGASE LIGAND, PROTEIN DEGRADATION AGENT AND USE THEREOF” (priority 2023, dated 2024):
Where two headings read alike, the source gives them in different places.

Tests used:
MV-4-11 = experiment: CCK-8 proliferation, MV-4-11; format: cell-based, Human; details: Homo sapiens, MV4-11
Summary of the method: (§1)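 Cells seeded, then after 24 h treated with 10 concentrations (top 10 µM, 5-fold serial dilution) for a line-specific time at 37°C, 5% CO2. Viability read by CCK-8; IC50 fitted from growth-inhibition curves.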

CCRF-CEM = experiment: CCK-8 proliferation, CCRF-CEM; format: cell-based, Human; details: Homo sapiens
Summary of the method: as §1

IRAK4 = target: T1, IRAK4 (Homo sapiens, UniProt Q9NWZ3); experiment: Western blot degradation of IRAK4 (hPBMC); format: cell-based; details: Table D1
T1 construct: evaluate the effects of the compounds of the present disclosure on the expression of target proteins in cells; endogenous in cells; host or cells: hPBMC
T1 sequence (Q9NWZ3 1-460): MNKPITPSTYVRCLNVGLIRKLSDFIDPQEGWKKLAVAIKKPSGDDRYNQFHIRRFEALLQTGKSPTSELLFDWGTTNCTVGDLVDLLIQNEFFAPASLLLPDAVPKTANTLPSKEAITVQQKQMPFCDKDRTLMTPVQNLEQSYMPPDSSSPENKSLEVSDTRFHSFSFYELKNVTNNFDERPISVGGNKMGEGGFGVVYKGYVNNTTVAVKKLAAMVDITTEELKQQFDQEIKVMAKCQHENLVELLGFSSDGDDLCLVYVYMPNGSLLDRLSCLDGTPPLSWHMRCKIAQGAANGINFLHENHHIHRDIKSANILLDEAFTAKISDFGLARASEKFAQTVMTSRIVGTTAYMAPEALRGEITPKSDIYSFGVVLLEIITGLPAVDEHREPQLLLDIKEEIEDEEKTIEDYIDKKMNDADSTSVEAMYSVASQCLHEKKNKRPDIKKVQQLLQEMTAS
Summary of the method: (§2)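 Quantification by ImageJ densitometry of Western blot bands: DC50 is the fitted concentration halving band intensity relative to DMSO. Percent remaining uses internal-control normalization, and degradation rate is its complement.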

LNcap = experiment: CCK-8 proliferation, LNcap; format: cell-based; details: Homo sapiens; Table B10, compounds designed based on the IRAK4 inhibitors; Lncap cells; read-out: Inhibitory activity (IC50, nM) on tumor cell proliferation, Lncap
Description: (§3) The tumor cells used herein were cultured in a cell culture medium listed in table A1 at 37°C in an incubator with 5% CO2. Prior to experimentation, all cell lines used were correctly identified by STR profiling, and tested negative for mycoplasma contamination using a mycoplasma detection kit through routine screenings. Table A1. Tumor cells and cell culture medium used in the present disclosure
(§4) IC50 values of the compounds of the present disclosure (including the compounds in Table 1, and compounds of examples) were measured using the Meilun Cell Counting Kit-8 kit from Dalian Meilun Biotech Co., Ltd. Assay details are as follows: tumor cells were seeded in a 96-well plate at a density listed in Table A2. After 24h, 100 µL of the inoculated cells were treated with 0.5µL of the compounds of the present disclosure (including the compounds in Tables 1 and 2, and compounds of examples) at 10 different successively decreasing concentrations (starting at the highest concentration of 10µM; 5-fold serial dilutions). After the cells were treated with the compounds of the present disclosure for a period of time, the cell viability detection reagent was added to the culture medium for cell viability assessment according to the instructions provided with the CCK-8 kit. […] The growth inhibition of the compounds of the present disclosure on cells was plotted by Prism Graphpad software, and the IC50 values of the compounds of the present disclosure were calculated therefrom. […] Seeding protocol and treatment time for tumor cells

Jurkat = experiment: CCK-8 proliferation, Jurkat; format: cell-based, Human; details: Homo sapiens; Table B10, compounds designed based on the IRAK4 inhibitors; Jurkat cells; read-out: Inhibitory activity (IC50, nM) on tumor cell proliferation, Jurkat
Summary of the method: as §1

MM.1S = experiment: CCK-8 proliferation, MM.1S; format: cell-based; details: Homo sapiens, MM1.S
Summary of the method: as §1

SR = experiment: CCK-8 proliferation, SR; format: cell-based, Human; details: Homo sapiens
Summary of the method: as §1

22RV1 = experiment: CCK-8 proliferation, 22RV1; format: cell-based; details: Homo sapiens, 96 hours, read-out: Inhibitory activity (IC50) on tumor cell proliferation, 22RV1
Summary of the method: as §1

MCF7 = experiment: CCK-8 proliferation, MCF7 (MCF-7); format: cell-based; details: Homo sapiens, MCF7; CCK-8; read-out: Inhibitory activity (IC50) on tumor cell proliferation, MCF7
Summary of the method: as §1

CDK6 = target: T2, CDK6 (Homo sapiens, UniProt Q00534); experiment: Western blot degradation of CDK6 (MDA-MB-231 Cell); format: cell-based; details: Table D3
T2 construct: evaluate the effects of the compounds of the present disclosure on the expression of target proteins in cells; endogenous in cells; host or cells: MDA-MB-231
Summary of the method: as §2

Kasumi-1 = experiment: CCK-8 proliferation, Kasumi-1; format: cell-based, Human; details: Homo sapiens, Kasumi 1, 72 hours, read-out: Inhibitory activity (IC50) on tumor cell proliferation, Kasumi-1
Summary of the method: as §1

H1975 = experiment: CCK-8 proliferation, NCI-H1975 (H1975); format: cell-based, Human; details: Homo sapiens, NCI-H1975; CCK-8; 96 hours; read-out: Inhibitory activity (IC50) on tumor cell proliferation, H1975
Summary of the method: as §1

CDK4 = target: T3, CDK4 (Homo sapiens, UniProt P11802); experiment: Western blot degradation of CDK4 (MDA-MB-231 Cell); format: cell-based; details: Table D3
T3 construct: evaluate the effects of the compounds of the present disclosure on the expression of target proteins in cells; endogenous in cells; host or cells: MDA-MB-231
Summary of the method: as §2

MM.1R = experiment: CCK-8 proliferation, MM.1R; format: cell-based; details: CCK-8, 72 hours, read-out: Inhibitory activity (IC50) on tumor cell proliferation, MM.1R
Description: as §3, §4

[1] = Table B10, compounds designed based on the IRAK4 inhibitors, MV-4-11 cells, read-out: Inhibitory activity (IC50, nM) on tumor cell proliferation, MV-4-11
[2] = Table B10, compounds designed based on the IRAK4 inhibitors, CCRF-CEM cells, read-out: Inhibitory activity (IC50, nM) on tumor cell proliferation, CCRF-CEM
[3] = Table B10, compounds designed based on the IRAK4 inhibitors, SR cells, read-out: Inhibitory activity (IC50, nM) on tumor cell proliferation, SR
[4] = CCK-8, 72 or 96 hours, read-out: Inhibitory activity (IC50) on tumor cell proliferation, MV-4-11
[5] = CCRF-CEM, CCK-8, 96 hours, read-out: Inhibitory activity (IC50) on tumor cell proliferation, CCRF-CEM
[6] = SR, CCK-8, 72 hours, read-out: Inhibitory activity (IC50) on tumor cell proliferation, SR
[7] = CCK-8, 72 hours, read-out: Inhibitory activity (IC50) on tumor cell proliferation, MM1S

T2 sequence (Q00534 whole entry): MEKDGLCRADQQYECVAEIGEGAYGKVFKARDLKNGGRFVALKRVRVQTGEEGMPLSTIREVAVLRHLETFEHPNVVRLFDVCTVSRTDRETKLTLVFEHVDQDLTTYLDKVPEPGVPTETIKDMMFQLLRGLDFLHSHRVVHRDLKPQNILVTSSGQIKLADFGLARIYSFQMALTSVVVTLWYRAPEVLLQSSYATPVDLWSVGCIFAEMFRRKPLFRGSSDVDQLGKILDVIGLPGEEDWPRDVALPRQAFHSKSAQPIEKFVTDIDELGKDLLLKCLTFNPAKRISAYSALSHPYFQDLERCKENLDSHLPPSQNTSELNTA
T3 sequence (P11802 whole entry): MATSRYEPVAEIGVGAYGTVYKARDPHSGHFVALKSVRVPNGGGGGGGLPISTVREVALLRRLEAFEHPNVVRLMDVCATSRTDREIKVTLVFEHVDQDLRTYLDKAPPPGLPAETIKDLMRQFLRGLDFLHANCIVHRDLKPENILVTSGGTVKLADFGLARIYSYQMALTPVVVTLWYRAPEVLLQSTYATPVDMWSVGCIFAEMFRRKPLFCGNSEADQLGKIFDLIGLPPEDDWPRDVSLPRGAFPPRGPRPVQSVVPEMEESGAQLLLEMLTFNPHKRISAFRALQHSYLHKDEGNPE

Row | Structure (SMILES) | IC50 (MV-4-11; [1]) [nM] | IC50 (CCRF-CEM; [2]) [nM] | Degradation of substrate protein IRAK4 (substrate protein remaining %) (IRAK4) | IC50 (LNcap) [nM] | IC50 (Jurkat) [nM] | IC50 (MM.1S; Table B10, compounds designed based on the IRAK4 inhibitors, MM.1S cells, read-out: Inhibitory activity (IC50, nM) on tumor cell proliferation, MM.1S) [nM] | IC50 (SR; [3]) [nM] | IC50 (MV-4-11; [4]) [nM] | IC50 (CCRF-CEM; [5]) [nM] | IC50 (SR; [6]) [nM] | IC50 (22RV1) [nM] | IC50 (MCF7) [nM] | Degradation of substrate protein CDK6 (substrate protein remaining %) (CDK6) | IC50 (Kasumi-1) [nM] | IC50 (H1975) [nM] | IC50 (MM.1S; [7]) [nM] | Degradation of substrate protein CDK4 (substrate protein remaining %) (CDK4) | IC50 (MM.1R) [nM]
1 | O=C1CCC(c2ccc(CN3CCC(n4cc(NC(=O)c5coc(-c6ccnc(NCC7CC7)c6)n5)c(C(F)F)n4)CC3)cc2)C(=O)N1 (stereo not shown) [GT-04175, 2-(2-((cyclopropylmethyl)amino)pyridin-4-yl)-N-(3-(difluoromethyl)-1-(1-(4-(2,6-dioxopiperidin-3-yl)benzyl)piperidin-4-yl)-1H-pyrazol-4-yl)oxazole-4-carboxamide] | 500 to 1000 | 500 to 1000 | A (A is defined as 0% ≤ substrate protein remaining % ≤ 80%) | 100 to 500 | 100 to 500 |  |  |  |  |  |  |  |  |  |  |  |  | 
2 | O=C1CCC(c2ccc(CN3CCN(c4ccc(-n5cc(NC(=O)c6coc(-c7ccnc(NCC(F)(F)F)c7)n6)c(C(F)F)n5)cc4)CC3)cc2F)C(=O)N1 (stereo not shown) [GT-04274, N-(3-(difluoromethyl)-1-(4-(4-(4-(2,6-dioxopiperidin-3-yl)-3-fluorobenzyl)piperazin-1-yl)phenyl)-1H-pyrazol-4-yl)-2-(2-((2,2,2-trifluoroethyl)amino)pyridin-4-yl)oxazole-4-carboxamide] |  | 500 to 1000 | A (A is defined as 0% ≤ substrate protein remaining % ≤ 80%) | 100 to 500 | 500 to 1000 | 100 to 500 |  |  |  |  |  |  |  |  |  |  |  | 
3 | CC(C)Nc1cc(-n2ccc3cc(C#N)cnc32)ncc1C(=O)NC1CCN(Cc2ccc(C3CCC(=O)NC3=O)cc2)CC1 (stereo not shown) [GT-04042, 6-(5-cyano-1H-pyrrolo[2,3-b]pyridin-1-yl)-N-(1-(4-(2,6-dioxopiperidin-3-yl)benzyl)piperidin-4-yl)-4-(isopropylamino)nicotinamide] | 500 to 1000 | 500 to 1000 |  | 500 to 1000 | 500 to 1000 |  | 500 to 1000 |  |  |  |  |  |  |  |  |  |  | 
4 | CC(C)Nc1cc(-n2ccc3cc(C#N)cnc32)ncc1C(=O)NC1CCN(Cc2ccc(C3CCC(=O)NC3=O)c(F)c2)CC1 (stereo not shown) [GT-04043, 6-(5-cyano-1H-pyrrolo[2,3-b]pyridin-1-yl)-N-(1-(4-(2,6-dioxopiperidin-3-yl)-3-fluorobenzyl)piperidin-4-yl)-4-(isopropylamino)nicotinamide] | 500 to 1000 | 500 to 1000 |  | 500 to 1000 | 100 to 500 |  | 500 to 1000 |  |  |  |  |  |  |  |  |  |  | 
5 | Cc1nc2c(F)cc(-c3nc(Nc4ccc(N5CCC(N6CCN(Cc7ccc(N8CCC(=O)NC8=O)cc7)CC6)CC5)cn4)ncc3F)cc2n1C(C)C [GT-06739, 1-(4-((4-(1-(6-((5-fluoro-4-(4-fluoro-1-isopropyl-2-methyl-1H-benzo[d]imidazol-6-yl)pyrimidin-2-yl)amino)pyridin-3-yl)piperidin-4-yl)piperazin-1-yl)methyl)phenyl)dihydropyrimidine-2,4(1H,3H)-dione] |  |  |  |  |  |  |  | 10 to 50 | 100 to 500 | 50 to 100 | 10 to 50 | 50 to 100 | B (B is defined as substrate protein remaining % > 80%) | 50 to 100 | 100 to 500 | 100 to 500 | A (A is defined as 0% ≤ substrate protein remaining % ≤ 80%) | 
6 | CC(=O)c1c(C)c2cnc(Nc3ccc(N4CCNCC4)cn3)nc2n(C2CCCC2)c1=O [Palbociclib, reference compound] |  |  |  |  |  |  |  | 100 to 500 | 1000 to 5000 | 1000 to 5000 | 100 to 500 | 1000 to 5000 |  | 1000 to 5000 | 5000 to 10000 | > 10000 |  | > 10000
7 | CN(C)C(=O)c1cc2cnc(Nc3ccc(N4CCNCC4)cn3)nc2n1C1CCCC1 [Ribociclib, reference compound] |  |  |  |  |  |  |  | 5000 to 10000 | > 10000 | 5000 to 10000 | 1000 to 5000 | 5000 to 10000 |  | 1000 to 5000 | > 10000 | 5000 to 10000 |  | > 10000
8 | Cc1nc2c(F)cc(-c3nc(Nc4ccc(N5CCC(N(C)Cc6cccc(N7CCC(=O)NC7=O)c6)CC5)cn4)ncc3F)cc2n1C(C)C [GT-06839, 1-(3-(((1-(6-((5-fluoro-4-(4-fluoro-1-isopropyl-2-methyl-1H-benzo[d]imidazol-6-yl)pyrimidin-2-yl)amino)pyridin-3-yl)piperidin-4-yl)(methyl)amino)methyl)phenyl)dihydropyrimidine-2,4(1H,3H)-dione] |  |  |  |  |  |  |  | 10 to 50 | 100 to 500 | 50 to 100 | 10 to 50 | 50 to 100 | A (A is defined as 0% ≤ substrate protein remaining % ≤ 80%) | 10 to 50 | 100 to 500 | 100 to 500 | A (A is defined as 0% ≤ substrate protein remaining % ≤ 80%) | 
